Test results from patent US9549912B2, “Methods for treating atrial fibrillation” (Armetheon, Inc., priority 2009, dated 2017).

Columns and labels:
[1] = system: patients with paroxysmal atrial fibrillation (PAF); test: Randomized, double-blind, placebo-controlled study of budiodarone in PAF patients with pacemakers: AT/AF burden, episodes, NSR, GCI (Example 2); format: in vivo, human
Description: The objective of the study is to determine the efficacy of budiodarone in reducing atrial tachyarrhythmia (AT/AF) burden in patients with paroxysmal atrial fibrillation (PAF) compared to placebo, for 12 weeks of treatment, and the safety and tolerability of budiodarone for up to 12 weeks of treatment.
Secondary: to study the effect of budiodarone versus placebo on the number and duration of AT/AF episodes, duration of normal sinus rhythm (NSR) between episodes of AT/AF and on symptoms associated with PAF.
Example 2 describes a multicenter, multinational, randomized, double-blind, placebo-controlled, parallel-group study of the efficacy and safety of budiodarone in patients with PAF. Planned enrollment was up to 140 patients (with eventually 110 enrolled) with proven PAF who had permanently implanted pacemakers with appropriate AT/AF diagnostic and recording capabilities. Potential study participants underwent screening assessments, including the optimization of pacemaker programming for accurate AT/AF detection. Within 30 days after screening assessments began, eligible patients entered a 4-week baseline period (Period 1) when baseline atrial fibrillation burden (AFB) was established followed by randomization to one of three active treatment regimens or placebo for a 12-week treatment period (Period 2), followed by a 4-week washout period (Period 3). During the treatment period, patients received twice-daily (BID) oral doses of 200 mg ATI-2042, 400 mg ATI-2042, 600 mg ATI-2042, or placebo. No study drug was given during the baseline and washout periods.
To be randomized, study participant must have had: an AT/AF burden between 5% and 70% during the baseline period; no evidence of persistent AF (i.e., 7 or more consecutive days of AT/AF with episodes lasting >23 hours); able to have pacemaker atrial antitachyarrhythmia treatment algorithms turned off for the remaining duration of the study.
Efficacy outcome measures were AT/AF burden (total time spent in AT/AF as a percentage of total observation time), number and mean duration of AT/AF episodes, mean duration of NSR, patient global clinical impression (GCI) questionnaire, and University of Toronto Atrial Fibrillation Severity Scale (AFSS).
Statistical methods for efficacy: The primary efficacy analysis was the percent change in the AT/AF burden from baseline to the 12-week treatment period. Pairwise comparisons between each ATI-2042 dose group and the placebo group were performed using the Wilcoxon rank sum test. The primary analysis was based on the mITT population.
For all variables based on the pacemaker data, the Wilcoxon rank sum test was used to compare each ATI-2042 dose group to the placebo group. The Jonckheere-Terpstra test was used to test for a dose response. The Wilcoxon signed rank test was used to test for a significant change from baseline within each treatment group. An analysis of covariance (ANCOVA) was used to compare the percent change from baseline in AT/AF burden among the treatment groups after adjusting for the baseline AT/AF burden. The ANCOVA model contained effects for treatment group and baseline AT/AF burden.
For patient […], the Cochran-Mantel-Haenszel test was used to compare each ATI-2042 dose group to the placebo group. The Jonckheere-Terpstra test was used to test for a dose response.

[2] = Trough plasma concentrations of ATI-2042 and metabolites (Example 1); format: in vivo, human
Experimental: Patients were enrolled within 8 weeks of screening. During the study, they were reviewed on days 1, 2, and 8 of each study period. ATI-2042 was increased on day 1 of each 2-week study period, following routine bloods for haematology, biochemistry, and coagulation screens. Plasma samples for pharmacokinetic analysis of ATI-2042 and its metabolites were taken at steady state at the end of each study period just prior to the first escalated dose of the subsequent period and within 15 min prior to the pre-dose ECG for that dose.
Trough concentrations of ATI-2042 and its metabolites (ATI-2000, ATI-2100, and ATI-2142), measured at pre-dose on day 1 of each of the four treatment periods and on days 1 and 8 of the washout period, were summarized by time point. Spearman's rank correlation was used to examine the relationship between trough concentrations of ATI-2042 and AFB.

[3] = 600 mg BID, Treatment Months 1-3, ITT
[4] = 600 mg BID, Treatment Months 1-3, mITT

(S)-sec-butyl 2-(3-(4-(2-(diethylamino)ethoxy)-3,5-diiodobenzoyl)benzofuran-2-yl)acetate [ATI-2042]
decrease in AFB ([1]; 200 mg BID, mITT population, not statistically significant): 10%
median percent reduction from baseline in AT/AF burden ([1]; 400 mg BID, Treatment Months 1-3, ITT population): 54%
median percent reduction from baseline in AT/AF burden ([1]; 400 mg BID, Treatment Months 1-3, mITT population): 54%
AF episodes lasting 24 hours (FIG. 6) ([1]; 400 mg dose cohort): only a single 24 hour episode
patients with AF eradicated during the study period ([1]; 600 mg): More than half the patients had their AF eradicated
reduction of number and duration of AF episodes below baseline (FIG. 3) ([1]; 600 mg): about 70%
median percent reduction in AT/AF burden ([1]; 600 mg BID, Treatment Month 3, ITT population): 80%
median percent reduction in AT/AF burden ([1]; 600 mg BID, Treatment Month 3, mITT population): 83%
median percent change from baseline in duration of AT/AF episodes [1, 3]: −51.3%
median percent change from baseline in number of AT/AF episodes [1, 3]: −52.9%
median percent increase from baseline in duration of NSR [1, 3]: 208.8%
median percent reduction from baseline in AT/AF burden ([1]; 600 mg BID, Treatment Months 1-3, ITT population): 74%
median percent change from baseline in duration of AT/AF episodes [1, 4]: −51.3%
median percent change from baseline in number of AT/AF episodes [1, 4]: −62.1%
median percent increase from baseline in duration of NSR [1, 4]: 241.8%
median percent reduction from baseline in AT/AF burden ([1]; 600 mg BID, Treatment Months 1-3, mITT population): 75%
median percentage reduction in AFB ([1]; 600 mg BID, third month, paragraph refers to ITT population): 83%
AF episodes lasting 24 or more hours (FIG. 6) ([1]; 600 mg dose group): no patients experienced an AF episode lasting 24 or more hours
decrease in number of AT/AF episodes (median percent change from baseline, FIG. 3) ([1]; 600 mg, all three treatment months): more than 60%
median AF episode duration ([1]; 600 mg, month 3): 0
decrease in duration of episodes (median percent change from baseline, FIG. 3) ([1]; 600 mg, treatment month 1): more than 50%
decrease in duration of episodes (median percent change from baseline, FIG. 3) ([1]; 600 mg, treatment month 2): more than 70%
decrease in duration of episodes (median percent change from baseline, FIG. 3) ([1]; 600 mg, treatment month 3): ~70%
mean episode duration (FIG. 4) ([1]; 600 mg, down from nearly 24): less than 1 hour
Patient GCI: patients a lot or completely satisfied with the test medication ([1]; ITT population, dose group not stated): 60.0%
Patient GCI: patients reporting a lot of improvement or complete relief ([1]; dose group not stated, ITT and mITT both named): 46.7%
AFB after one-month washout ([1]; each of the three dose groups): returned to essentially the baseline values
mean trough level of ATI-2042 ([2]; 200 mg bid, steady state): 2.4 ± 0.9 ng/mL
mean trough level of ATI-2042 ([2]; 400 mg bid): 5.2 ± 1.7 ng/mL
mean trough level of ATI-2042 ([2]; 600 mg bid): 13.1 ± 5.6 ng/mL
mean trough level of ATI-2042 ([2]; 800 mg bid): 19.8 ± 17.9 ng/mL
trough level of ATI-2042 ([2]; washout): 0.3+0.4 ng/mL
